Laboratory results published in patent US20120101257A1, “PROCESSES FOR PREPARING AMINO-SUBSTITUTED GAMMA-LACTAMS” (UNIVERSITE DE MONTREAL, priority 2009, published 2012).
*1 amine or outer side, *2 acyl side, *3 side chain or, on linkers, in order; H or OH if unused. Where a SMILES comes first, the peptide text is derived from it. [ ]: non-standard residue; d: D form. The star is where a group is joined. X12 = CC(C)C[C@@H](NC(=N)[C@@H](CCC(=O)O)N1C[C@H](N[*:1])CC1=O)C(=O)[*:2]; X9 = O=C1C[C@H](N[*:1])CN1[C@@H](Cc1c[nH]c2ccccc12)C(=O)[*:2]; X10 = O=C1C[C@H](N[*:1])CN1[C@H](Cc1ccccc1)C(=O)[*:2]; X5 = O=C1C[C@@H](N[*:1])CN1[C@H](Cc1ccccc1)C(=O)[*:2]; X7 = N[C@H]1CC(=O)N([C@H](Cc2c[nH]c3ccccc23)C(=O)*)C1; X3 = N[C@@H]1CCN([C@H](Cc2c[nH]c3ccccc23)C(=O)*)C1=O; X4 = N[C@H]1CCN([C@H](Cc2c[nH]c3ccccc23)C(=O)*)C1=O; X1 = NCCCC[C@@H](C(N)=O)N1C[C@@H](N*)CC1=O; X6 = NCCCC[C@@H](C(N)=O)N1CC[C@@H](N*)C1=O; X2 = NCCCC[C@@H](C(N)=O)N1CC[C@H](N*)C1=O; X8 = NCCCC[C@@H](C(N)=O)N1C[C@H](N*)CC1=O; d(aThr) = C[C@@H](O)[C@@H](N)C(=O)O

Assays:
TF-1 cells = assay: [3H]thymidine incorporation, IL-1 induced TF-1 cell proliferation; assay type: cell-based, human
Description: Human TF-1 cells (5×10^4 cells/well) were cultured in complete RPMI medium (GIBCO RPMI Medium 1640, Invitrogen) supplemented with GM-CSF (Granulocyte Macrophage Colony Stimulating Factor, 2 ng/ml; BD Biosource). Cells were deprived of growth factors for 18 h before preincubation with lactam peptide (1 μM) followed by treatment with IL-1β (10 or 25 ng/mL). After 24 h incubation at 37° C., [^3H]thymidine (1 μCi/mL; Amersham) was added and the cells were incubated for another 24 h. Cells were harvested, washed two times with PBS (10 mM Na2HPO4, 2 mM KH2PO4, 137 mM NaCl, 2.7 mM KCl; pH 7.4) and lysed with a 0.1 N NaOH/0.1% Triton X-100 solution. Scintillation cocktail (Fisher Scientific, 8 mL/sample) was added to the lysate, and after 3 h, radioactivity was measured (Beckman Multi-Purpose Scintillation Coulter Counter LS6500). Results were analyzed by one- or two-way ANOVA factoring for concentration or treatments. Postanova comparisons among means were performed using the Tukey-Framer method. Statistical significance was set at p<0.05. Data are presented as mean±SEM.

CD36 = target: T1, CD36 (Rattus norvegicus, UniProt Q07969); assay: Competitive covalent CD36 binding assay using photoactivatable [125I]-Tyr-Bpa-Ala-Hexarelin; conditions: for IC50: displacement of [125I]-Tyr-Bpa-Ala-Hexarelin; for drop of CD36 affinity, factor: factor of decrease, reference peptide not stated
T1 construct: the rat cardiac membranes (200 μg) as source of CD36; from tissue; host or cells: Sprague Dawley rat heart (cardiac membranes)
Description: Animal use was in accordance with the Institutional Animal Ethics Committee and the Canadian Council on Animal Care guidelines for the use of experimental animals. Sprague Dawley (275-350 g) rats were anaesthetized with sodium pentobarbital and their hearts were promptly removed in ice-cold saline and the cardiac membranes were prepared according to Harigaya and Schwartz.^lxvi
Nonspecific binding was defined as binding not displaced by 50 μM peptide. After an incubation period of 60 min at 22° C., membranes were submitted to UV irradiation at 365 nm for 15 min at 4° C. After centrifugation at 12 000 g for 15 min, the pellets were resuspended in 100 μl of sample buffer consisting of 62 mM Tris-HCl, pH 6.8, 2% SDS, 10% glycerol, 15% 2-mercapto-ethanol, and 0.05% bromophenol blue, and boiled for 5 min prior to being subjected to electrophoresis on 7.5% SDS-PAGE. The SDS/PAGE gels were fixed, colored in Coomassie Brilliant Blue R-250, dried, exposed to a storage phosphor intensifying screen (Amersham Biosciences), and analysed by using a Typhoon PhosphorImager (Amersham Biosciences) and ImageQuant 5.0 software to establish competition curves.

GHS-R1a receptor = target: T2, GHS-R1a receptor (Homo sapiens, UniProt Q92847); assay: GHS-R1a receptor competitive binding assay with 125I-Ghrelin; conditions: for IC50: competition with 125I-Ghrelin, GHS-R1a transiently transfected in LLC-PK1 cells; for loss of GHS-R1a binding affinity, factor relative to GHRP-6: factor of decrease compared to GHRP-6
T2 construct: expressed in transfected cells; host or cells: LLC-PK1 cells, transient calcium phosphate transfection, membrane preparation
Description: Transfection LLC-PK1 cells were seeded at 1.5×10^6 cells/10 cm Petri-dishes and grown for 24 h in DMEM high-glucose (4.5 g/L) with 10% foetal bovine serum supplemented with penicillin (10,000 Units/ml) and streptomycin (10,000 ug/ml), and cultured at 37° C., with 5% CO2. The medium was then replaced for another 4-5 hours before CaPO4 calcium phosphate transfection. The DNA solution consists of 40 μg of DNA in a volume of 500 μl in which was added 500 μl of 2 mM Tris-HCl pH 8.0, 0.2 mM EDTA pH 8.0 containing 500 mM CaCl2, to a final volume of 1 ml. Then 1 ml of 50 mM Hepes, 280 mM NaCl, 1.5 mM Na2HPO4 pH to 7.1 (HBSS) was added by alterning 1 drop/2 air bubbles. The transfection mix reaction was incubated at RT for 30 min. After the incubation period, 1 ml of the mix was added to each plate and distributed evenly for incubation. The media was replaced with standard DMEM-high glucose media for another 24 h and cells were collected for membrane preparation.
Membrane preparation The experiment was carried out 4° C. unless specified. Cells were washed 2 times with PBS and with the homogenization buffer (HB) consisting of 50 mM Tris, 5 mM MgCl2, 2.5 mM EDTA, 30 ug/ml bacitracin at pH 7.3 and were scraped in Eppendorf tubes. Cells were lysed with 2 cycles of freeze/thawing using liquid nitrogen and were then centrifuged at 4° C. for 20 min at 10,000 g to collect the membranes. The membranes were re-suspended in a small volume of HB and aliquoted for storage at −80° C.
The non-specific binding was determined by excess of competitive ligand at 10^−5M. The reaction was carried out at RT for 1 h.

T1 sequence (Q07969 whole entry): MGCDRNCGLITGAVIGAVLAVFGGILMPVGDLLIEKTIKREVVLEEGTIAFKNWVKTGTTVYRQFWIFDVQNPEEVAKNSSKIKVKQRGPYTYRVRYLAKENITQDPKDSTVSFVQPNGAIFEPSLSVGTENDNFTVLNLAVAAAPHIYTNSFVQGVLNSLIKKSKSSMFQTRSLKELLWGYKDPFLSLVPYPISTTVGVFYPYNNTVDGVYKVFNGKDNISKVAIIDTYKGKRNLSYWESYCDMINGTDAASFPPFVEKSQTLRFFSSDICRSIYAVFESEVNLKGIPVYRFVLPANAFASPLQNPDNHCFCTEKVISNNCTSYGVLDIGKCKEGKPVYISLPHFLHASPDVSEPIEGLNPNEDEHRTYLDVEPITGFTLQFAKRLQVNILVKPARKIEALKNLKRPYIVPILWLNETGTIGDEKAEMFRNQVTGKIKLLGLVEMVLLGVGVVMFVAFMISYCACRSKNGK
T2 sequence (Q92847 whole entry): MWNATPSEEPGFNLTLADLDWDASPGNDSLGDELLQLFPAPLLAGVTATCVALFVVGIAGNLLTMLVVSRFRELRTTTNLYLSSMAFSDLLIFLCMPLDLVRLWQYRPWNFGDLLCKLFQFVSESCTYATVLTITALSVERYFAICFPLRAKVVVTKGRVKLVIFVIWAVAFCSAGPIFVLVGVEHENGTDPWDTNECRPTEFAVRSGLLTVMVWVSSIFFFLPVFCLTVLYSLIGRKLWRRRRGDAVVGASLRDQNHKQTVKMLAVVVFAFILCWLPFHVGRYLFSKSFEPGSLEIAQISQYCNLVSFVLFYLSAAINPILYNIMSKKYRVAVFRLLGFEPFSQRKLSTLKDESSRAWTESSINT

Molecule | IC50 (CD36; rat cardiac membranes) [µM] | IC50 (GHS-R1a receptor) [µM] | further results
D-Arg-D-Tyr-D-Thr-(S)-Agl-D-Glu-D-Leu-D-Ala-NH2 [Compound 94] |  |  | percentage of proliferation of TF-1 cells pre-treated with peptide (TF-1 cells; IL-1 induced, [3H]thymidine incorporation as in Example 59): 132%
CC(C)C[C@@H](NC(=N)[C@@H](CCC(=O)O)N1C[C@H](NC(=O)[C@H](NC(=O)[C@@H](Cc2ccc(O)cc2)NC(=O)[C@H](N)CCCNC(=N)N)[C@@H](C)O)CC1=O)C(=O)N[C@H](C)C(N)=O [Compound 78, D-Arg-D-Tyr-D-Thr-(R)-Bgl-D-Glu-D-Leu-D-Ala-NH2] (H-[dR][dY][d(aThr)][X12][dA]-NH2) |  |  | increase in efficacy compared to 101.10, inhibition of IL-1 induced TF-1 proliferation (TF-1 cells; lactam peptide 1 μM, IL-1β 10 or 25 ng/mL): 2.4 fold
C[C@@H](C(=O)NCN[C@@H](Cc1c[nH]c2ccccc12)C(=O)N[C@H](Cc1ccccc1)C(=O)N[C@@H](CCCCN)C(N)=O)N1C[C@@H](NC(=O)[C@@H](N)Cc2c[nH]cn2)CC1=O [Compound 50, His-(S)-Bgl-Ala-Trp-D-Phe-Lys-NH2] | > 10 | > 10 | 
C[C@@H](C(=O)N[C@@H](Cc1c[nH]c2ccccc12)C(=O)N[C@H](Cc1ccccc1)C(=O)N[C@@H](CCCCN)C(N)=O)N1CC[C@H](NC(=O)[C@@H](N)Cc2c[nH]cn2)C1=O [Compound 45, His-(S)-Agl-Ala-Trp-D-Phe-Lys-NH2] | 13.4 | 28.6 | drop of CD36 affinity, factor (CD36): 15
NCCCC[C@H](NC(=O)[C@@H](Cc1ccccc1)NC(=O)[C@H](Cc1c[nH]c2ccccc12)N1C[C@@H](NC(=O)[C@@H](Cc2c[nH]c3ccccc23)NC(=O)[C@@H](N)Cc2cnc[nH]2)CC1=O)C(N)=O [Compound 51, His-D-Trp-(S)-Bgl-Trp-D-Phe-Lys-NH2] (H-H[dW][X9][dF]K-NH2) | > 10 | 0.654 | 
C[C@H](NC(=O)[C@@H](Cc1c[nH]c2ccccc12)N1CC[C@@H](N)C1=O)C(=O)N[C@@H](Cc1c[nH]c2ccccc12)C(=O)N[C@H](Cc1ccccc1)C(=O)N[C@@H](CCCCN)C(N)=O [Compound 60, (R)-Agl-D-Trp-Ala-Trp-D-Phe-Lys-NH2] (X3-AW[dF]K-NH2) | 8.72 | 3.46 | 
C[C@@H](C(=O)N[C@@H](Cc1c[nH]c2ccccc12)C(=O)N[C@H](Cc1ccccc1)C(=O)N[C@@H](CCCCN)C(N)=O)N1CC[C@@H](NC(=O)[C@@H](N)Cc2c[nH]cn2)C1=O [Compound 61, His-(R)-Agl-Ala-Trp-D-Phe-Lys-NH2] | > 10 | > 10 | 
C[C@H](NC(=O)[C@@H](Cc1c[nH]c2ccccc12)NC(=O)[C@@H](N)Cc1c[nH]cn1)C(=O)N[C@H]1CCN([C@H](Cc2ccccc2)C(=O)N[C@@H](CCCCN)C(N)=O)C1=O [Compound 47, His-D-Trp-Ala-(S)-Agl-D-Phe-Lys-NH2] | > 10 | > 10 | 
C[C@H](NC(=O)[C@@H](Cc1c[nH]c2ccccc12)NC(=O)[C@@H](N)Cc1c[nH]cn1)C(=O)N[C@@H]1CCN([C@H](Cc2ccccc2)C(=O)N[C@@H](CCCCN)C(N)=O)C1=O [Compound 63, His-D-Trp-Ala-(R)-Agl-D-Phe-Lys-NH2] | > 10 | > 10 | 
C[C@H](NC(=O)[C@@H](Cc1c[nH]c2ccccc12)NC(=O)[C@@H](N)Cc1c[nH]cn1)C(=O)N[C@H]1CC(=O)N([C@H](Cc2ccccc2)C(=O)N[C@@H](CCCCN)C(N)=O)C1 [Compound 52, His-D-Trp-Ala-(S)-Bgl-D-Phe-Lys-NH2] (H-H[dW]A[X10]K-NH2) | > 10 | > 10 | 
NCCCC[C@H](NC(=O)[C@H](Cc1ccccc1)NC(=O)[C@H](Cc1c[nH]c2ccccc12)N1CC[C@@H](NC(=O)[C@@H](Cc2c[nH]c3ccccc23)NC(=O)[C@@H](N)Cc2c[nH]cn2)C1=O)C(N)=O [Compound 62, His-D-Trp-(R)-Agl-Trp-D-Phe-Lys-NH2] | 17.3 | 2.82 | 
C[C@H](NC(=O)[C@@H](Cc1c[nH]c2ccccc12)NC(=O)[C@@H](N)Cc1c[nH]cn1)C(=O)N[C@@H](Cc1c[nH]c2ccccc12)C(=O)N[C@H]1CC(=O)N([C@@H](CCCCN)C(N)=O)C1 [Compound 53, His-D-Trp-Ala-Trp-(S)-Bgl-Lys-NH2] (H-H[dW]AW-X1) | 26.5 | 24.5 | drop of CD36 affinity, factor (CD36): 15
C[C@H](NC(=O)[C@@H](Cc1c[nH]c2ccccc12)NC(=O)[C@@H](N)Cc1c[nH]cn1)C(=O)N[C@@H](Cc1c[nH]c2ccccc12)C(=O)N[C@@H]1CC(=O)N([C@@H](CCCCN)C(N)=O)C1 [Compound 70, His-D-Trp-Ala-Trp-(R)-Bgl-Lys-NH2] (H-H[dW]AW-X8) | > 10 | > 10 | 
C[C@H](NC(=O)[C@@H](Cc1c[nH]c2ccccc12)N1CC[C@H](N)C1=O)C(=O)N[C@@H](Cc1c[nH]c2ccccc12)C(=O)N[C@H](Cc1ccccc1)C(=O)N[C@@H](CCCCN)C(N)=O [Compound 44, (S)-Agl-D-Trp-Ala-Trp-D-Phe-Lys-NH2] (X4-AW[dF]K-NH2) | 14.5 | 0.0409 | loss of GHS-R1a binding affinity, factor relative to GHRP-6 (GHS-R1a receptor): 10
C[C@H](NC(=O)[C@@H](Cc1c[nH]c2ccccc12)NC(=O)[C@@H](N)Cc1c[nH]cn1)C(=O)N[C@@H](Cc1c[nH]c2ccccc12)C(=O)N[C@@H]1CCN([C@@H](CCCCN)C(N)=O)C1=O [Compound 64, His-D-Trp-Ala-Trp-(R)-Agl-Lys-NH2] (H-H[dW]AW-X6) | 38.2 | > 10 | reduction of CD36 binding affinity, factor compared with hexarelin (CD36): 10
C[C@H](NC(=O)[C@@H](Cc1c[nH]c2ccccc12)N1C[C@@H](N)CC1=O)C(=O)N[C@@H](Cc1c[nH]c2ccccc12)C(=O)N[C@H](Cc1ccccc1)C(=O)N[C@@H](CCCCN)C(N)=O [Compound 49, (S)-Bgl-D-Trp-Ala-Trp-D-Phe-Lys-NH2] (X7-AW[dF]K-NH2) | > 10 | 0.371 | 
C[C@H](NC(=O)[C@@H](Cc1c[nH]c2ccccc12)NC(=O)[C@@H](N)Cc1c[nH]cn1)C(=O)N[C@@H](Cc1c[nH]c2ccccc12)C(=O)N[C@H]1CCN([C@@H](CCCCN)C(N)=O)C1=O [Compound 48, His-D-Trp-Ala-Trp-(S)-Agl-Lys-NH2] (H-H[dW]AW-X2) | 21.4 | 3.1 | drop of CD36 affinity, factor (CD36): 15
C[C@H](NC(=O)[C@@H](Cc1c[nH]c2ccccc12)NC(=O)[C@@H](N)Cc1c[nH]cn1)C(=O)N[C@@H]1CC(=O)N([C@H](Cc2ccccc2)C(=O)N[C@@H](CCCCN)C(N)=O)C1 [Compound 69, His-D-Trp-Ala-(R)-Bgl-D-Phe-Lys-NH2] (H-H[dW]A[X5]K-NH2) | 53.5 | > 10 | reduction of CD36 binding affinity, factor compared with hexarelin (CD36): 10
NCCCC[C@H](NC(=O)[C@H](Cc1ccccc1)NC(=O)[C@H](Cc1c[nH]c2ccccc12)N1CC[C@H](NC(=O)[C@@H](Cc2c[nH]c3ccccc23)NC(=O)[C@@H](N)Cc2c[nH]cn2)C1=O)C(N)=O [Compound 46, His-D-Trp-(S)-Agl-Trp-D-Phe-Lys-NH2] | 7.45 | 2.39 | affinity for the CD36 receptor (in words) (CD36; rat cardiac membranes): retained similar affinity; loss of GHS-R1a binding affinity, factor relative to GHRP-6 (GHS-R1a receptor): 10^3
